The nature of this data set: Solubility of EDOT^PEGn-HTL monomer variants in various solvents. Particulars: compared among three variants (n=1,2,3). In kind it is physicochemical. The source says:
EDOT conjugates with HTL have not been reported previously. Initially a series of EDOT^PEGn-HTL monomers (n=1,2,3, . . . ) were synthesized, wherein it was anticipated that increasing the number of PEG repeats would improve solubility, at the risk of exacerbating sidechain steric interference (FIG. 2A). The HTL modification increases the molecular weight of the monomer. The unmodified EDOT has a molecular weight (MW) of […]; while EDOT^PEGn-HTL has a MW of 551 (n=1), 595 (n=2), 639 (n=3), or MW of 507+44×n. Thus, all of the candidate designs carry substantial steric bulk, which is inevitable.
Several conditions were tested, including various solvents, against the three variants. […] EDOT^PEG3-HTL was unable to be polymerized with PSS as the counter-ion. Specifically, whereas the formation of PEDOT:PSS is accompanied by an unmistakable darkening of a gold surface (i.e., the polymer is visible to the naked eye), no visual indication of polymerization was seen when EDOT was replaced with EDOT^PEG3-HTL (FIG. 3A and FIG. 3B). This held true over a wide range of voltage parameters and concentrations.

We go through 1 molecule from US20240352183A1, “CONDUCTIVE POLYMER WITH COVALENT CAPTURE ABILITY AND METHODS OF USING SAME” (Duke University, priority 2021, published 2024).

With `O=C(CCOCCOCCOCCNC(=O)COCC1COc2cscc2O1)NCCOCCOCCCCCCCl` (stereo not shown) [EDOT^PEG3-HTL, N-(2-(2-((6-chlorohexyl)oxy)ethoxy)ethyl)-3-((1-(2,3-dihydrothieno[3,4-b][1,4]dioxin-2-yl)-4-oxo-2,8,11-trioxa-5-azatridecan-13-yl)oxy)propanamide], the solubility entry was “most soluble”.
